Source: patent US7314888B1, “Compounds and medicinal use thereof” (Toyama Chemical Co., Ltd., priority 1998, dated 2008)
Bridge positions count the residues as written; N and C are the ends. Peptide text beside a SMILES is read from it.

Columns and labels:
[1] = biological target: T1, AP-1 complex (Fos/Jun peptide) (Homo sapiens, UniProt P01100+P05412); experiment: Activities on AP-1 binding reaction to recognition sequence (ELISA) using Fos/Jun peptide; settings: read-out: Inhibition rate %
T1 construct: made in house; host or cells: chemical peptide synthesis (no expression host)
T1 sequence (P01100 137-200 limits assumed): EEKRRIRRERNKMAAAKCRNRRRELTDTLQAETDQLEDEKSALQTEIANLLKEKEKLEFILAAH
T1 sequence (P05412 252-315 limits assumed): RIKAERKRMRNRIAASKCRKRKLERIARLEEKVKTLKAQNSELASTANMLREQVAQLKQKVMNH
Protocol: (§1) Activities on AP-1 Binding Reaction to Recognition Sequence (ELISA)
On the other hand, Jun peptide and N-terminal biotinylated tetraglycine Fos peptide containing a DNA-binding site [Nature, Vol. 373, Pages 257-261, 1995] were synthesized and separately dissolved in tris buffer (20 mM tris-hydrochloride (pH 7.5), 50 mM potassium chloride, 1 mM ethylenediaminetetraacetic acid, 10 mM magnesium chloride, 1 mM dithiothreitol, 0.5M guanidine hydrochloride, 30% glycerol). Equimolar quantities of both the solutions were mixed together, and the mixture was used as an AP-1 complex (Fos/Jun peptide). The AP-1 complex was added to avidin-coating 96-well ELISA plate (10 pmol/well), washed, and then blocked with bovine serum albumin. The product was used for binding assay using AP-1 complex.
(§2) On the basis of the above-mentioned two coated AP-1, a digoxigenin-labeled double stranded oligonucleotide (22-mer) containing an AP-1 binding sequence ([…]) which has been synthesized elsewhere was reacted in the presence and absence of a sample at room temperature for 30-60 minutes in a binding reaction solution [Hepes buffer or 25 mM tris-hydrochloric acid (pH 7.9), 0.5 mM ethylenediaminetetraacetic acid, 0.05% Nonidet P-40, 10% glycerol]. After of the reaction, unbound labeled oligonucleotide washed out with Hepes buffer solution containing 0.05% of Tween-20. Then, an anti-digoxigenin antibody labeled with peroxidase was added, and reacted with the labeled oligonucleotide bound to AP-1. After washing out the excessive antibody with Hepes buffer containing 0.05% of Tween-20, the residue was reacted for a predetermined period of time in a 100 mM citrate buffer (pH 5.0) containing hydrogen peroxide by using o-phenylenediamine as a substrate. After adding-sulfuric acid solution to each well, absorbance (492 nm) was measured. Taking the absorbance in the absence of sample as 100%, inhibition rate of sample was calculated from the absorbance in the presence of sample.

[2] = tested on: transcription factor AP-1 (nuclear extract protein prepared from HeLa cells); experiment: Activities on AP-1 binding reaction to recognition sequence (ELISA) using nuclear extract protein; settings: 100 μM; ELISA using nucleus-extracted protein
Protocol: as §1
Nuclear extract protein containing transcription factor AP-1 prepared from HeLa cells was coated on 96-well ELISA plate (100 ng/well) in Hepes buffer (20 mM Hepes-potassium hydroxide (pH 7.9), 0,5 mM ethylenediamine-tetraacetic acid, 50 mM potassium chloride, 10% glycerol). After washing, a blocking treatment was carried out with bovine serum albumin, and then used for a binding assay using nuclear extract protein.
as §2

Compound	inhibition at 200 µM [1] [%]	inhibition at 500 µM [1] [%]	Inhibition rate [2] [%]
CC(C)CC=C1CCC2(CC1)SC[C@H](C(=O)O)N2C(=O)CCC(C)C (stereo partly drawn) [Example 4, (3S)-8-(3-methylbutylidene)-4-(4-methylpentanoyl)-1-thia-4-azaspiro[4.5]-decane-3-carboxylic acid]	8	15	–
Ac-Cys^1-Gly-Gln-Leu-Asp-Leu-Ala-Asp-Gly-Cys^10-NH2 (Cys^1-Cys^10) (GQLDLADGC; not fully specified; N-acetyl Cys, C-amide, Cys1-Cys10 disulfide; printed: Gly-Gln-Leu-Asp-Leu-Ala-Asp-Gly-Cys) [Example 2]	–	–	81
CC(C)COc1ccc(C(=O)c2ccc(OCC(C)C)c(C(=O)O)c2)c(OCC(C)C)c1 [Example 8, 5-(2,4-diisobutoxybenzoyl)-2-isobutoxybenzoic acid]	9	20	–
CC(C)COc1ccc(Cc2ccc(OCC(C)C)c(CC(=O)O)c2)c(OCC(C)C)c1 [Example 16, 2-[5-(2,4-diisobutoxybenzyl)-2-isobutoxyphenyl]acetic acid]	21	65	–
CC(C)COc1ccc(C(O)c2ccc(OCC(C)C)c(C=CC(=O)O)c2)c(OCC(C)C)c1 (stereo not shown) [Example 14, 3-[5-[(2,4-diisobutoxyphenyl)(hydroxy)methyl]-2-isobutoxyphenyl]-2-propenoic acid]	21	90	–
CC(C)COc1ccc(C(=O)c2ccc(OCC(C)C)c(/C=C/C(=O)O)c2)c(OCC(C)C)c1 [Example 13, 3-[5-(2,4-diisobutoxybenzoyl)-2-isobutoxyphenyl]-2-propenoic acid]	43	96	–
Ac-Asn-Cys^2-Gly-Asn-Leu-Leu-Ala-Leu-Gly-Ser-Cys^11-NH2 (Cys^2-Cys^11) (GNLLALGSC; not fully specified; Ac-Asn-Cys N-term, C-amide, disulfide; printed: Gly-Asn-Leu-Leu-Ala-Leu-Gly-Ser-Cys) [3(7)]	–	–	74
CC(=O)NC1CSSCC(C(N)=O)NC(=O)CNC(=O)C(CC(N)=O)NC(=O)C(C)NC(=O)C(CC(C)C)NC(=O)C(CC(=O)O)NC(=O)C(CC(C)C)NC(=O)C(CCC(N)=O)NC(=O)CNC1=O (stereo not shown) [3 (4)] (Ac-CGQLDLANGC-NH2; disulfide 1-10; configuration not given here)	–	–	64
CC(C)CCOc1ccc(C(=O)c2cc(C(=O)CC(C)C)cn2CCC(C)C)cc1CCC(=O)O [Example 88, 3-[5-{[1-isopentyl-4-(3-methylbutanoyl)-1H-pyrrol-2-yl]carbonyl}-2-(isopentyloxy)phenyl]propanoic acid]	29	72	–
CC(C)COc1ccc(C(NS(C)(=O)=O)c2ccc(OCC(C)C)c(CCC(=O)O)c2)c(OCC(C)C)c1 (stereo not shown) [Example 73, 3-(5-{(2,4-diisobutoxyphenyl)[(methylsulfonyl)amino]methyl}-2-isobutoxyphenyl)propanoic acid]	18	74	–
CC(C)COc1ccc(C(=O)c2ccc(OCC(C)C)c(CCC(=O)NS(C)(=O)=O)c2)c(OCC(C)C)c1 [Example 58, N-{3-[5-(2,4-diisobutoxybenzoyl)-2-isobutoxyphenyl]propanoyl}methanesulfonamide]	22	88	–
CC(C)COc1ccc(C(=O)c2ccc(OCC(C)C)c(CCC(=O)O)c2)c(O)c1 [Example 38, 3-[5-(2-hydroxy-4-isobutoxybenzoyl)-2-isobutoxyphenyl]-propanoic acid]	18	91	–
CC(C)COc1ccc(C(=O)c2ccc(OCC(C)C)c(C(=O)NCC(=O)O)c2)c(OCC(C)C)c1 [Example 57, 2-{[5-(2,4-diisobutoxybenzoyl)-2-isobutoxybenzoyl]amino}-acetic acid]	13	62	–
CC(=O)NC1CSSCC(C(N)=O)NC(=O)CNC(=O)CNC(=O)C(C)NC(=O)C(CC(C)C)NC(=O)C(CC(=O)O)NC(=O)C(CC(C)C)NC(=O)C(CCC(N)=O)NC(=O)CNC1=O (stereo not drawn) [3(3), Ac-Cys^1-Gly-Gln-Leu-Asp-Leu-Ala-Gly-Gly-Cys^10-NH2 (Cys^1-Cys^10)] (Ac-CGQLDLAGGC-NH2; disulfide 1-10; configuration not given here)	–	–	43
CC(=O)NC1CSSCC(C(N)=O)NC(=O)CNC(=O)C(CC(=O)O)NC(=O)C(C)NC(=O)C(CC(C)C)NC(=O)C(CO)NC(=O)C(CC(C)C)NC(=O)C(CCC(N)=O)NC(=O)CNC1=O (stereo not drawn) [3(5), Ac-Cys^1-Gly-Gln-Leu-Ser-Leu-Ala-Asp-Gly-Cys^10-NH2 (Cys^1-Cys^10)] (Ac-CGQLSLADGC-NH2; disulfide 1-10; configuration not given here)	–	–	43
CC(C)COc1ccc(C(O)c2ccc(OCC(C)C)c(CCC(=O)O)c2)c(OCC(C)C)c1 (stereo not shown) [Example 15, 3-{5-[(2,4-diisobutoxyphenyl)(hydroxy)methyl]-2-isobutoxyphenyl}propionic acid]	19	64	–
CC(C)COc1ccc(C(=O)c2ccc(OCC(C)C)c(OCC(=O)O)c2)c(OCC(C)C)c1 [Example 53, 2-[5-(2,4-diisobutoxybenzoyl)-2-isobutoxyphenoxy]acetic acid]	30	79	–
CC(C)COc1ccc(C(O)c2ccc(OCC(C)C)c(CC(=O)O)c2)c(OCC(C)C)c1 (stereo not shown) [Example 9, 2-{5-[(2,4-diisobutoxyphenyl)(hydroxy)methyl]-2-isobutoxyphenyl}-acetic acid]	23	37	–
CC(C)COc1ccc(C(=O)c2ccc3c(c2)cc(C(=O)O)n3CC(C)C)c(OCC(C)C)c1 [Example 82, 5-(2,4-diisobutoxybenzoyl)-1-isobutyl-1H-indole-2-carboxylic acid]	28	97	–
CC(C)COc1ccc(C(=O)c2ccc(OCC(C)C)c(OCC(C)C)c2)cc1CCC(=O)O [Example 47, 3-[5-(3,4-diisobutoxybenzoyl)-2-isobutoxyphenyl]-propanoic acid]	35	92	–
CC(C)COc1ccc(OCC(C)C)c(C(=O)c2ccc(OCC(C)C)c(CCC(=O)O)c2)c1 [Example 43, 3-[5-(2,5-diisobutoxybenzoyl)-2-isobutoxyphenyl]-propanoic acid]	28	72	–
CC(C)COc1cc(OCC(C)C)cc(C(=O)c2ccc(OCC(C)C)c(CCC(=O)O)c2)c1 [Example 41, 3-[5-(3,5-diisobutoxybenzoyl)-2-isobutoxyphenyl]propanoic acid]	27	78	–
CC(C)COc1ccc(C(=O)c2ccc(OCC(C)C)c(CC(=O)O)c2)c(OCC(C)C)c1 [Example 7, 2-[5-(2,4-diisobutoxybenzoyl)-2-isobutoxyphenyl]acetic acid]	14	46	–
CC(C)CCOc1ccc(C(=O)c2ccc3c(c2)n(CCC(C)C)c(=O)n3CCC(C)C)cc1CC(=O)O [Example 90, 2-[5-[(1,3-diisopentyl-2-oxo-2,3-dihydro-1H-benzimidazol-5-yl)carbonyl]-2-(isopentyloxy)phenyl]-acetic acid]	26	96	–
